Test results as given in patent US9636376B2, “Stable compositions of peptide epoxy ketones” (priority 2012, dated 2017).
In brackets after ≈: the same amount, converted by molar mass.

Tests used:
[1] = tested on: solid and hematologic tumor cells; conditions: cited from earlier work
[2] = Effect of pH on saturation solubility of carfilzomib; assay type: physicochemical; conditions: aqueous buffer, thermodynamic from solid
Excerpt: For instance, a buffer is typically used in the liquid pharmaceutical compositions of the invention to control the pH.

[3] = tested on: models of multiple myeloma, hematologic, and solid tumors; conditions: cited from earlier work
proteasome = conditions: blood and tissue; cited from earlier work

CC(C)C[C@H](NC(=O)[C@H](CCc1ccccc1)NC(=O)CN1CCOCC1)C(=O)N[C@@H](Cc1ccccc1)C(=O)N[C@@H](CC(C)C)C(=O)[C@@]1(C)CO1 [Carfilzomib, (2S)—N—((S)-1-((S)-4-methyl-1-((R)-2-methyloxiran-2-yl)-1-oxopentan-2-ylcarbamoyl)-2-phenylethyl)-2-((S)-2-(2-morpholinoacetamido)-4-phenylbutanamido)-4-methylpentanamide]
Activities in vitro in tumor cells [1]: antiproliferative and proapoptotic activities
solubility ([2]; 1% L-cysteine solution, pH 1.7 (1% L-Cysteine)): 459 µg/mL (≈ 638 µM)
solubility ([2]; pH 3.5 (15 mM Acetate Buffer)): 125 µg/mL (≈ 174 µM)
solubility ([2]; pH 5.0 (15 mM Citrate Buffer)): 9 µg/mL (≈ 12.5 µM)
solubility ([2]; pH 7.0 (15 mM Phosphate Buffer)): 5 µg/mL (≈ 6.95 µM)
Effect on tumor growth [3]: delay tumor growth
Effect on proteasome activity (proteasome): inhibit proteasome activity
